Like-named read-outs stand apart in the source and are kept apart here.
Legend:
[1] = biological target: central benzodiazepine receptor; experiment: In vitro binding assay for central benzodiazepine receptors ([^3H]-Ro 15-1788, rat cortex membranes); conditions: rat cortex membrane / rat brain homogenates, [^3H]-Ro 15-1788 2 nM, 25° C., 45 minutes; read-out: IC50 (nM) CBR
Description: In Vitro Binding Assays for Central Benzodiazepine Receptors
Male Sprague Dawley rats are sacrificed by CO2 administration followed by cervical dislocation. Cortex is removed and placed in 20 volumes of ice-cold buffer ([…] Tris-HCl, pH 7.4) and minced finely with scissors. After homogenising the preparation will a polytron (PCU Kinematica, Bioblock, Switzerland) with one 10-second burst at a setting of 6, the suspension is centrifuged at 20,000 g for 20 minutes at 4° C. The pellets are resuspended in the previous buffer with a dounce (manual homogeniser). After the second centrifugation, the pellet is suspended in a final buffer (50 nM Tris/HCl, 0.32M sucrose, pH 7.4) to yield an appropriate protein concentration. Protein measurements are made by Lowry's method using bovine serum albumin as standard.
(§1) Non-specific binding is determined by blocking with cold Flumazenil (20 μM). Incubation is terminated by rapid filtration through Whatman GF/B glass fiber. Each sample tube and filter is immediately washed with 3 aliquots of 5 mL ice-cold […] Tris/HCl at pH 7.4. Filters are counted with a β-scintillation counter (Packard) to measure the amount of bound radioactivity. Ki and IC50 are calculated by EBDA/Ligand, iterative non-linear least squares curve-fitting programs (G. A. McPherson, J. Pharmacol. Methods 14, 213-228 (1985)).

[2] = biological target: peripheral benzodiazepine receptor (Rattus norvegicus, UniProt P16257); experiment: In vitro binding assay for peripheral benzodiazepine receptors ([^3H]-PK11195, rat kidney membranes); parameters: diluted kidney membrane preparation; from tissue; host or cells: rat kidney membranes (Sprague Dawley)
Description: In Vitro Binding Assays for Peripheral Benzodiazepine Receptors
Male Sprague Dawley rats are sacrificed by CO2 administration followed by cervical dislocation. Kidneys are removed and placed in 20 volumes of ice-cold buffer ([…] Tris-HCl, pH 7.4) and minced finely with scissors. After homogenising the preparation with a polytron (PCU Kintematica, Bioblock, Switzerland) with one 10-second burst at a setting of 10, the suspension is centrifuged at 49,000 g for 15 minutes at 4° C. The pellets are resuspended in the previous buffer with a dounce (manual homogeniser) to yield an appropriate protein concentration. Protein measurements are made by Lowry's method using bovine serum albumin as standard.
as §1, with “PK11195 (10” for “Flumazenil (20”, “programs.” for “programs (G. A. McPherson, J. Pharmacol. Methods 14, 213-228 (1985)).”

[3] = In vivo biodistribution of radiolabelled compounds in rats
Description: In vivo biodistribution of radiolabelled compounds of the invention indicated high uptake in the tissues which have known PBR sites. Tables 2 to 4 show the biodistribution of the compounds of Examples 1-3, in which the iodine atom is radiolabelled, when administered to rats.

peripheral benzodiazepine receptor, sequence (P16257 whole entry): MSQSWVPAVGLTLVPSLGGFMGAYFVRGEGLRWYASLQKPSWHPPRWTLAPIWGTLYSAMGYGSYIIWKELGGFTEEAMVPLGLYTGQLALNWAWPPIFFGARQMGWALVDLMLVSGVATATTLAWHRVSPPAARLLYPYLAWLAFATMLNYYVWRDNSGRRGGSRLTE

Structure (SMILES): CNC(=O)Cc1c(-c2ccc(F)cc2)nc2ccc(Cl)cn12 [B]
- IC50 [1]: 5.9 nM
- IC50 [2]: > 1000 nM
- melting point: 254 to 256 °C

Structure (SMILES): CNC(=O)Cc1c(-c2ccc(Cl)cc2)nc2ccc(Br)cn12 [C]
- IC50 [1]: 15 nM
- IC50 [2]: 33 nM
- melting point: 298 to 300 °C

Structure (SMILES): NC(=O)Cc1c(-c2ccc(F)cc2)nc2ccc(Cl)cn12 [Comparative Example A]
- IC50 [1]: 170 nM
- IC50 [2]: 3340 nM
- melting point: 250 to 252 °C

Structure (SMILES): CN(C)C(=O)Cc1c(-c2ccc(Cl)cc2)nc2ccc(Br)cn12 [D]
- IC50 [1]: 56.5 nM
- IC50 [2]: 90 nM
- melting point: 234 to 236 °C

Structure (SMILES): Cc1ccc2nc(-c3ccc(I)cc3)c(CC(=O)N(C)C)n2c1 [E, 6-methyl-2-(4′-iodophenyl)imidazo[1,2-a]pyridine-3-(N,N-dimethyl)acetamide, reference compound]
- IC50 [1]: 155 nM
- IC50 [2]: 176 nM

Structure (SMILES): CNC(=O)Cc1c(-c2ccc(I)cc2)nc2ccc(Cl)cn12 [Example 1, 6-chloro-2-(4′-iodophenyl)-imidazol[1,2-a]pyridine-3-(N-methyl)acetamide]
- IC50 [1]: > 1000 nM
- IC50 [2]: 0.99 nM
- melting point: 308 to 310 °C

Structure (SMILES): CN(C)C(=O)Cc1c(-c2ccc(I)cc2)nc2ccc(Cl)cn12 [Example 2]
- IC50 [1]: 168 nM
- IC50 [2]: 2.3 nM
- melting point: 216 to 218 °C

Structure (SMILES): CCN(CC)C(=O)Cc1c(-c2ccc(I)cc2)nc2ccc(Cl)cn12 [Example 3, 6-chloro-2-(4′-iodophenyl)-imidazo[1,2-a]pyridine-3-(N,N-diethyl)acetamide]
- IC50 [1]: > 1000 nM
- IC50 [2]: < 0.01 nM

Structure (SMILES): CCCCN(C)C(=O)Cc1c(-c2ccc(I)cc2)nc2ccc(Cl)cn12 [Example 6, 6chloro-2-(4′-iodophenyl)-imidazo[1,2-a]pyridine-3-(N-methyl, N-butyl)-acetamide]
- IC50 [1]: > 1000 nM
- IC50 ([2]; rat kidney membrane, [^3H]-PK11195 2 nM, 4° C., 1 hour, read-out: IC50 (nM) PBR): 266 nM

Structure (SMILES): CCN(CC)C(=O)Cc1c(-c2ccc([123I])cc2)nc2ccc(Cl)cn12 [^123-I Example 3]
- Biodistribution (% ID/g organ) Adrenals ([3]; 5 Min): 2.11 ± 0.12 % ID/g organ
- Biodistribution (% ID/g organ) Adrenals ([3]; 15 Min): 2.03 ± 0.8 % ID/g organ
- Biodistribution (% ID/g organ) Adrenals ([3]; 24 Hrs): 4.56 ± 0.74 % ID/g organ
- Biodistribution (% ID/g organ) Adrenals ([3]; 30 Min): 2.42 ± 0.36 % ID/g organ
- Biodistribution (% ID/g organ) Adrenals ([3]; 48 Hrs): 4.87 ± 0.55 % ID/g organ
- Biodistribution (% ID/g organ) Adrenals ([3]; 60 Min): 2.83 ± 0.41 % ID/g organ
- Biodistribution (% ID/g organ) Adrenals ([3]; 180 Min): 4.1 ± 0.80 % ID/g organ
- Biodistribution (% ID/g organ) Adrenals ([3]; 240 Min): 4.32 ± 0.60 % ID/g organ
- Biodistribution (% ID/g organ) Adrenals ([3]; 360 Min): 5.28 ± 0.95 % ID/g organ
- Biodistribution (% ID/g organ) Adrenals ([3]; 480 Min): 4.22 ± 0.12 % ID/g organ
- Biodistribution (% ID/g organ) Blood ([3]; 5 Min): 0.46 ± 0.08 % ID/g organ
- Biodistribution (% ID/g organ) Blood ([3]; 15 Min): 0.16 ± 0.02 % ID/g organ
- Biodistribution (% ID/g organ) Blood ([3]; 24 Hrs): 0.02 ± 0.001 % ID/g organ
- Biodistribution (% ID/g organ) Blood ([3]; 30 Min): 0.12 ± 0.03 % ID/g organ
- Biodistribution (% ID/g organ) Blood ([3]; 48 Hrs): 0.01 ± 0.001 % ID/g organ
- Biodistribution (% ID/g organ) Blood ([3]; 60 Min): 0.06 ± 0.02 % ID/g organ
- Biodistribution (% ID/g organ) Blood ([3]; 180 Min): 0.04 ± 0.001 % ID/g organ
- Biodistribution (% ID/g organ) Blood ([3]; 240 Min): 0.05 ± 0.001 % ID/g organ
- Biodistribution (% ID/g organ) Blood ([3]; 360 Min): 0.04 ± 0.001 % ID/g organ
- Biodistribution (% ID/g organ) Blood ([3]; 480 Min): 0.03 ± 0.001 % ID/g organ
- Biodistribution (% ID/g organ) Brain ([3]; 5 Min): 0.33 ± 0.04 % ID/g organ
- Biodistribution (% ID/g organ) Brain ([3]; 15 Min): 0.2 ± 0.02 % ID/g organ
- Biodistribution (% ID/g organ) Brain ([3]; 24 Hrs): 0.01 ± 0.001 % ID/g organ
- Biodistribution (% ID/g organ) Brain ([3]; 30 Min): 0.15 ± 0.01 % ID/g organ
- Biodistribution (% ID/g organ) Brain ([3]; 48 Hrs): 0.01 ± 0.001 % ID/g organ
- Biodistribution (% ID/g organ) Brain ([3]; 60 Min): 0.08 ± 0.02 % ID/g organ
- Biodistribution (% ID/g organ) Brain ([3]; 180 Min): 0.05 ± 0.001 % ID/g organ
- Biodistribution (% ID/g organ) Brain ([3]; 240 Min): 0.05 ± 0.01 % ID/g organ
- Biodistribution (% ID/g organ) Brain ([3]; 360 Min): 0.05 ± 0.02 % ID/g organ
- Biodistribution (% ID/g organ) Brain ([3]; 480 Min): 0.03 ± 0.001 % ID/g organ
- Biodistribution (% ID/g organ) Heart ([3]; 5 Min): 2.63 ± 0.30 % ID/g organ
- Biodistribution (% ID/g organ) Heart ([3]; 15 Min): 2.39 ± 035 % ID/g organ
- Biodistribution (% ID/g organ) Heart ([3]; 24 Hrs): 0.39 ± 0.03 % ID/g organ
- Biodistribution (% ID/g organ) Heart ([3]; 30 Min): 2.44 ± 0.28 % ID/g organ
- Biodistribution (% ID/g organ) Heart ([3]; 48 Hrs): 0.17 ± 0.002 % ID/g organ
- Biodistribution (% ID/g organ) Heart ([3]; 60 Min): 2.65 ± 0.63 % ID/g organ
- Biodistribution (% ID/g organ) Heart ([3]; 180 Min): 2.59 ± 0.16 % ID/g organ
- Biodistribution (% ID/g organ) Heart ([3]; 240 Min): 2.49 ± 0.22 % ID/g organ
- Biodistribution (% ID/g organ) Heart ([3]; 360 Min): 2.13 ± 0.45 % ID/g organ
- Biodistribution (% ID/g organ) Heart ([3]; 480 Min): 1.48 ± 0.12 % ID/g organ
- Biodistribution (% ID/g organ) Kidney ([3]; 5 Min): 1.73 ± 0.38 % ID/g organ
- Biodistribution (% ID/g organ) Kidney ([3]; 15 Min): 2.11 ± 0.31 % ID/g organ
- Biodistribution (% ID/g organ) Kidney ([3]; 24 Hrs): 0.25 ± 0.03 % ID/g organ
- Biodistribution (% ID/g organ) Kidney ([3]; 30 Min): 2.31 ± 0.02 % ID/g organ
- Biodistribution (% ID/g organ) Kidney ([3]; 48 Hrs): 0.12 ± 0.01 % ID/g organ
- Biodistribution (% ID/g organ) Kidney ([3]; 60 Min): 1.87 ± 0.66 % ID/g organ
- Biodistribution (% ID/g organ) Kidney ([3]; 180 Min): 1.71 ± 0.17 % ID/g organ
- Biodistribution (% ID/g organ) Kidney ([3]; 240 Min): 1.37 ± 0.18 % ID/g organ
- Biodistribution (% ID/g organ) Kidney ([3]; 360 Min): 1.43 ± 0.25 % ID/g organ
- Biodistribution (% ID/g organ) Kidney ([3]; 480 Min): 0.87 ± 0.15 % ID/g organ
- Biodistribution (% ID/g organ) Liver ([3]; 5 Min): 0.87 ± 0.13 % ID/g organ
- Biodistribution (% ID/g organ) Liver ([3]; 15 Min): 0.93 ± 0.06 % ID/g organ
- Biodistribution (% ID/g organ) Liver ([3]; 24 Hrs): 0.06 ± 0.001 % ID/g organ
- Biodistribution (% ID/g organ) Liver ([3]; 30 Min): 0.76 ± 0.01 % ID/g organ
- Biodistribution (% ID/g organ) Liver ([3]; 48 Hrs): 0.04 ± 0.001 % ID/g organ
- Biodistribution (% ID/g organ) Liver ([3]; 60 Min): 0.41 ± 0.14 % ID/g organ
- Biodistribution (% ID/g organ) Liver ([3]; 180 Min): 0.28 ± 0.02 % ID/g organ
- Biodistribution (% ID/g organ) Liver ([3]; 240 Min): 0.23 ± 0.03 % ID/g organ
- Biodistribution (% ID/g organ) Liver ([3]; 360 Min): 0.23 ± 0.02 % ID/g organ
- Biodistribution (% ID/g organ) Liver ([3]; 480 Min): 0.16 ± 0.01 % ID/g organ
- Biodistribution (% ID/g organ) Lungs ([3]; 5 Min): 13.16 ± 1.24 % ID/g organ
- Biodistribution (% ID/g organ) Lungs ([3]; 15 Min): 6.98 ± 1.87 % ID/g organ
- Biodistribution (% ID/g organ) Lungs ([3]; 24 Hrs): 0.31 ± 0.06 % ID/g organ
- Biodistribution (% ID/g organ) Lungs ([3]; 30 Min): 4.91 ± 0.22 % ID/g organ
- Biodistribution (% ID/g organ) Lungs ([3]; 48 Hrs): 0.17 ± 0.02 % ID/g organ
- Biodistribution (% ID/g organ) Lungs ([3]; 60 Min): 2.76 ± 0.80 % ID/g organ
- Biodistribution (% ID/g organ) Lungs ([3]; 180 Min): 1.63 ± 0.07 % ID/g organ
- Biodistribution (% ID/g organ) Lungs ([3]; 240 Min): 1.38 ± 0.09 % ID/g organ
- Biodistribution (% ID/g organ) Lungs ([3]; 360 Min): 1.21 ± 0.27 % ID/g organ
- Biodistribution (% ID/g organ) Lungs ([3]; 480 Min): 0.75 ± 0.07 % ID/g organ
- Biodistribution (% ID/g organ) Olfactive bulbs ([3]; 5 Min): 0.44 ± 0.08 % ID/g organ
- Biodistribution (% ID/g organ) Olfactive bulbs ([3]; 15 Min): 0.31 ± 0.03 % ID/g organ
- Biodistribution (% ID/g organ) Olfactive bulbs ([3]; 24 Hrs): 0.09 ± 0.001 % ID/g organ
- Biodistribution (% ID/g organ) Olfactive bulbs ([3]; 30 Min): 0.26 ± 0.03 % ID/g organ
- Biodistribution (% ID/g organ) Olfactive bulbs ([3]; 48 Hrs): 0.07 ± 0.001 % ID/g organ
- Biodistribution (% ID/g organ) Olfactive bulbs ([3]; 60 Min): 0.2 ± 0.07 % ID/g organ
- Biodistribution (% ID/g organ) Olfactive bulbs ([3]; 180 Min): 0.16 ± 0.02 % ID/g organ
- Biodistribution (% ID/g organ) Olfactive bulbs ([3]; 240 Min): 0.18 ± 0.03 % ID/g organ
- Biodistribution (% ID/g organ) Olfactive bulbs ([3]; 360 Min): 0.16 ± 0.04 % ID/g organ
- Biodistribution (% ID/g organ) Olfactive bulbs ([3]; 480 Min): 0.16 ± 0.03 % ID/g organ
